Measured values reported in US20220177476A1, “Crystal Forms of (S)-4-(8-amino-3-(1-(but-2-ynoyl)-pyrrolidin-2-yl)imidazo[1,5-a]pyrazin-1-yl)-n-(pyridin-2-yl)benzamide” (Acerta Pharma B.V., priority 2015, published 2022).

Assays:
[1] = Dynamic vapor sorption (DVS); type: physicochemical; settings: DVS; for water content at the end of the DVS test: by weight; for hygroscopicity according to the European Pharmacopoeia (EP) classification: weight increase at 80% RH
Procedure: A gravimetric vapor sorption study was run using a standard procedure. Samples were run using a dynamic vapor sorption (DVS) analyzer. Sample sizes were approximately 10 mg. A moisture adsorption-desorption isotherm was performed as outlined below.

[2] = Relative stability of solid forms (water activity, suspension equilibration, storage); type: physicochemical; settings: for Stability at Room Temperature: crystalline forms of the free base
From the text: Critical water activity is a measure of the relative thermodynamic stability of Form I in comparison to the trihydrate Form II. […] Suspension equilibration experiments in ethanol-water mixtures, each having a different water activity, affirmed this conclusion. Water activities included in the experiments were maintained at: about 0.35 (ethanol-water ratio of 95:5, PP502-P32), about 0.53 (ethanol-water ratio of 9:1, PP502-P33) and about 0.77 (ethanol-water ratio of 7:3, PP502-P34).
Because the DVS results of Form II indicate reversible moisture sorption-desorption behavior (see above), tests were performed to confirm that storage of the dehydrated Form II sample (i.e., Form IV) at about 60% RH would again lead to the trihydrate form (Form II). […]

CC#CC(=O)N1CCC[C@H]1c1nc(-c2ccc(C(=O)Nc3ccccn3)cc2)c2c(N)nccn12.O=C(O)CC(O)(CC(=O)O)C(=O)O [citrate salt, (S)-4-(8-amino-3-(1-(but-2-ynoyl)pyrrolidin-2-yl)imidazo[1,5-α]pyrazin-1-yl)-N-(pyridin-2-yl)benzamide citrate]
water content at the end of the DVS test [1]: about 7.5%
form after suspension equilibration in water ([2]; water at 25° C. for 24 hours): conversion to Form III of the free base of Formula (1)

CC#CC(=O)N1CCC[C@H]1c1nc(-c2ccc(C(=O)Nc3ccccn3)cc2)c2c(N)nccn12 [amorphous Formula (1), (S)-4-(8-amino-3-(1-(but-2-ynoyl)pyrrolidin-2-yl)imidazo[1,5-α]pyrazin-1-yl)-N-(pyridin-2-yl)benzamide]
total mass gained up to 95% RH [1]: approximately 13%
total weight gain observed between 0% RH and 80% RH [1]: about 6%
hygroscopicity according to the European Pharmacopoeia (EP) classification [1]: hygroscopic (hygroscopic: ≥2% and <15%)

CC#CC(=O)N1CCC[C@H]1c1nc(-c2ccc(C(=O)Nc3ccccn3)cc2)c2c(N)nccn12 [Form III, (S)-4-(8-amino-3-(1-(but-2-ynoyl)pyrrolidin-2-yl)imidazo[1,5-α]pyrazin-1-yl)-N-(pyridin-2-yl)benzamide]
maximum water content (saturation) at about 95% RH [1]: about 8.5%
total weight gain observed between 0% RH and 80% RH [1]: about 8%
hygroscopicity according to the European Pharmacopoeia (EP) classification [1]: hygroscopic (hygroscopic: ≥2% and <15%)
Stability at Room Temperature [2]: metastable

CC#CC(=O)N1CCC[C@H]1c1nc(-c2ccc(C(=O)Nc3ccccn3)cc2)c2c(N)nccn12 [Form VII, (S)-4-(8-amino-3-(1-(but-2-ynoyl)pyrrolidin-2-yl)imidazo[1,5-α]pyrazin-1-yl)-N-(pyridin-2-yl)benzamide]
Stability at Room Temperature [2]: metastable

CC#CC(=O)N1CCC[C@H]1c1nc(-c2ccc(C(=O)Nc3ccccn3)cc2)c2c(N)nccn12 [Form IV, (S)-4-(8-amino-3-(1-(but-2-ynoyl)pyrrolidin-2-yl)imidazo[1,5-α]pyrazin-1-yl)-N-(pyridin-2-yl)benzamide]
Stability at Room Temperature [2]: metastable
form after storage at 60% RH for three days (PXRD) ([2]; dehydrated Form II sample): does revert to Form II

CC#CC(=O)N1CCC[C@H]1c1nc(-c2ccc(C(=O)Nc3ccccn3)cc2)c2c(N)nccn12.O=C(O)C(=O)O [oxalate salt, (S)-4-(8-amino-3-(1-(but-2-ynoyl)pyrrolidin-2-yl)imidazo[1,5-α]pyrazin-1-yl)-N-(pyridin-2-yl)benzamide oxalate]
maximum water content (saturation) at about 95% RH [1]: about 6.5%
water content at 50% RH [1]: about 5.5%

CC#CC(=O)N1CCC[C@H]1c1nc(-c2ccc(C(=O)Nc3ccccn3)cc2)c2c(N)nccn12 [Form VIII, (S)-4-(8-amino-3-(1-(but-2-ynoyl)pyrrolidin-2-yl)imidazo[1,5-α]pyrazin-1-yl)-N-(pyridin-2-yl)benzamide]
Stability at Room Temperature [2]: metastable

CC#CC(=O)N1CCC[C@H]1c1nc(-c2ccc(C(=O)Nc3ccccn3)cc2)c2c(N)nccn12 [Form VI, (S)-4-(8-amino-3-(1-(but-2-ynoyl)pyrrolidin-2-yl)imidazo[1,5-α]pyrazin-1-yl)-N-(pyridin-2-yl)benzamide]
Stability at Room Temperature [2]: metastable

CC#CC(=O)N1CCC[C@H]1c1nc(-c2ccc(C(=O)Nc3ccccn3)cc2)c2c(N)nccn12 [Form V, (S)-4-(8-amino-3-(1-(but-2-ynoyl)pyrrolidin-2-yl)imidazo[1,5-α]pyrazin-1-yl)-N-(pyridin-2-yl)benzamide]
Stability at Room Temperature [2]: metastable

CC#CC(=O)N1CCC[C@H]1c1nc(-c2ccc(C(=O)Nc3ccccn3)cc2)c2c(N)nccn12.O=C(O)c1cc(O)ccc1O [gentisate salt, (S)-4-(8-amino-3-(1-(but-2-ynoyl)pyrrolidin-2-yl)imidazo[1,5-α]pyrazin-1-yl)-N-(pyridin-2-yl)benzamide gentisate]
water content at the end of the DVS test [1]: 5.2%
